Experimental data from patent US12310955B2 (priority 2020, dated 2025).
Like-named read-outs stand apart in the source and are kept apart here.

System: recombinant rabies virus 1088 strain expressing Gaussia Luciferase (1088/GLuc)
Assay: microbe, parasite or virus in culture
Assay type: cell-based

Cc1ccc2c(CN3CC4CC5(C(=O)NCC6CCCCCC6)NC(=O)C4C3C5CC(C)C)cn(C(=O)OC(C)(C)C)c2c1 (racemic) [IF-782]
IC50 (read-out: Anti-rabies activity): 10 to 30 µM

Cc1ccc2c(C[C@@H]3[C@H]4C[C@H]5CN[C@@H]3[C@@]5(C(=O)NCC3CCCCCC3)N(CC(C)C)C4=O)cn(C(=O)OC(C)(C)C)c2c1 [IB-814]
IC50 (read-out: Anti-rabies activity): 10 to 30 µM

CC(C)CN1C(=O)[C@@H]2C[C@H]3CN[C@@H]([C@@H]2Cc2c[nH]c4cc(F)ccc24)[C@]31C(=O)NCC1CCCCCC1 [IB-817]
IC50 (read-out: Anti-rabies activity): 10 to 30 µM

NC(=O)c1nc(F)c[nH]c1=O [Compound T-705, reference compound]
IC50 (Lyssavirus rabies, N2a, 72 h, read-out: anti-rabies virus activity IC50): 30 µM

COc1ccc(CN2C[C@H]3C[C@]4(C(=O)NCc5ccccc5)NC(=O)[C@H]3[C@H]2[C@H]4CC(C)C)cc1 (relative stereo) [Compound I-5, (3S*,3aR*,6S*,7R*,7aR*)-N-benzyl-7-isobutyl-1-(4-methoxybenzyl)-4-oxooctahydro-6H-3,6-methanopyrrolo[3,2-c]pyridine-6-carboxamide]
IC50 (Lyssavirus rabies, N2a, 72 h, read-out: Anti-rabies activity): < 5 µM
